Assay results published in US20130079370A1, “Method for the Inhibition of Deubiquitinating Activity” (priority 2011, published 2013).

Assays:
[1] = tested on: FaDu head and neck carcinoma xenografts; assay: FaDu head and neck carcinoma xenografts in SCID mice; type: in vivo
Method: In vitro proteasome activity assays were performed in black 96-well microtitier plates using human 20S proteasome (Boston Biochem) in reaction buffer (25 mM Hepes, 0.5 mM EDTA, 0.03% SDS) with Suc-LLVY-AMC, Z-LLE-AMC or Boc-LRRAMC used as substrates for proteasome activity. De-ubiquitinase activity assays were performed with human 19S RP (Boston Biochem) with ubiquitin-AMC as substrate. For FaDu xenograft studies a 100-μl-cell suspension containing 1×10^6 cells was injected subcutaneously into the flank of SCID. Upon tumor take mice were randomized into control or treatment groups and administered with 5 mg kg^−1 b-AP15 or vehicle. In vivo levels of apoptosis and cell death were determined from the detection of caspase cleaved and total levels of cytokeratin-18 in plasma using M30 Apoptosense® and M65 ELISA®s assays (Peviva). […]
Animal experiments were conducted in full accordance with Swedish governmental statutory regulations on animal welfare under permission from local ethical committees. […] All mice were monitored and weighed daily. […] After injection, tumor growth was measured daily with calipers and the tumor volume calculated by the formula L×W^2×0.44. […] Nineteen days after malignant cell injection all of the mice were killed and histopathological manifestations of liver, ovary (target organs for this model of tumor) were evaluated and compared between groups. […]

[2] = tested on: HCT-116 Bcl2+ colon carcinoma xenografts; assay: HCT-116 Bcl2+ colon carcinoma xenografts in nude mice, tumor onset; type: in vivo; conditions: 5 mg/kg 4-5 times weekly for 3 weeks; log-rank P=0.0136; vs vehicle
Method: Animal experiments were conducted in full accordance with Swedish governmental statutory regulations on animal welfare under permission from local ethical committees. Animals were housed at a max of five per cage and provided with sterile water and food ad libitum. All mice were monitored and weighed daily. For the head and neck carcinoma model a 100-μl cell suspension containing 1×10^6 FaDu cells was injected subcutaneously into the right rear flank of the animals. After injection, tumor growth was measured daily with calipers and the tumor volume calculated by the formula L×W^2×0.44. When tumors had grown to a size of approximately 200 mm^3 (Day 0) mice were randomized to receive either vehicle (n=10) or b-AP15 5 mg/kg by subcutaneous injection s.c. (n=15) daily. […] Nineteen days after malignant cell injection all of the mice were killed and histopathological manifestations of liver, ovary (target organs for this model of tumor) were evaluated and compared between groups. […]
SCID mice bearing FaDu human tumor xenografts were randomized at tumor take (200 mm^3) and treated by daily subcutaneous injection with either vehicle (n=10) or 5 mg kg^−1 b-AP15 (n=15) for 10 days. […] Mice were treated with vehicle (n=6) or 5 mg kg^−1 b-AP15 (n=6) 4-5 times weekly for 3 weeks and monitored for tumor onset (log-rank, P=0.0136, hazard ratio=7.9). […]

HCT-116 cells = assay: DNA damage markers, immunoblot; type: cell-based; conditions: cell cycle arrest observed
Method: Treatment with b-AP15 increased their levels in a dose dependent manner without altering the levels of ornithine decarboxylase 1 (ODC1), an ubiquitin-independent proteasome substrate (8).
HCT-116 cells were treated with b-AP15 or doxorubicin (100 nM, as a positive control for genotoxic stress for 18 h) (FIG. 5). Cell lysates were immuno-blotted with antibodies for phosphorylated p53 and histone H2 Ax marker for DNA damage of for total levels of p53 and β-actin as loading controls.

SMILES: C=CC(=O)N1C/C(=C\c2ccc([N+](=O)[O-])cc2)C(=O)/C(=C/c2ccc([N+](=O)[O-])cc2)C1 [b-AP15, (3E,5E)-3,5-bis[(4-nitrophenyl)methylidene]-1-(prop-2-enoyl)piperidin-4-one]
- treated/control tumor volume, T/C ([1]; 5 mg/kg s.c. daily for 10 days, p=<0.001): 0.4
- difference in weight at the start and the endpoint between control and treated animals ([1]; FaDu xenograft): −1.3%
- hazard ratio, disease free survival [2]: 7.9
- DNA damage markers phosphorylated p53 (Ser 15), H2AX (Ser 139) (HCT-116 cells): not associated with increased levels of DNA damage markers
